This is an account of results in ChEMBL document CHEMBL5149996, “Structure-Based Optimization and Discovery of M3258, a Specific Inhibitor of the Immunoproteasome Subunit LMP7 (β5i)” (J Med Chem, 2021).

Data set [1] addresses T1, Proteasome subunit beta type-9 (Homo sapiens, UniProt P28065).
T1 sequence (P28065 whole entry): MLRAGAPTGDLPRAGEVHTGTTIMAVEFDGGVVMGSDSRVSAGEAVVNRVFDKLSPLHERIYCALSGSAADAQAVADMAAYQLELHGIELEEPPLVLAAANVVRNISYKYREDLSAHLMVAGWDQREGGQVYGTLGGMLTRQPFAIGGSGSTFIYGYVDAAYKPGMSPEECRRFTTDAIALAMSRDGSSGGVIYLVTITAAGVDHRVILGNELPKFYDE
The experiment in a line: Inhibition of human 20S immunoproteasome beta-1i subunit using (Ac-PAL)2R110 as substrate preincubated for 2 hrs followed by substrate addition and measured after 1 hr by fluorescence intensity assay.

Data set [2] deals with T2, Proteasome subunit beta type-10 (Homo sapiens, UniProt P40306).
T2 sequence (P40306 whole entry): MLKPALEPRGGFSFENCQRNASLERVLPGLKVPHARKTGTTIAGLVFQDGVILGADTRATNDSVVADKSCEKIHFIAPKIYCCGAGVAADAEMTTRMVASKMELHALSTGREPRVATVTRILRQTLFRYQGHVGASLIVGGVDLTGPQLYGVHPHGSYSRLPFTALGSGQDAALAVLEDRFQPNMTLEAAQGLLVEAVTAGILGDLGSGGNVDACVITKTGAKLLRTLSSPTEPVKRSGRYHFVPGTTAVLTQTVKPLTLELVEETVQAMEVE
As to the kind of experiment: Inhibition of human 20S immunoproteasome beta-2i subunit using Ac-RLR-AMC as substrate preincubated for 2 hrs followed by substrate addition and measured after 1 hr by fluorescence intensity assay.

The target in data set [3] is T3, Proteasome subunit beta type-7 (Homo sapiens, UniProt Q99436).
T3 sequence (Q99436 whole entry): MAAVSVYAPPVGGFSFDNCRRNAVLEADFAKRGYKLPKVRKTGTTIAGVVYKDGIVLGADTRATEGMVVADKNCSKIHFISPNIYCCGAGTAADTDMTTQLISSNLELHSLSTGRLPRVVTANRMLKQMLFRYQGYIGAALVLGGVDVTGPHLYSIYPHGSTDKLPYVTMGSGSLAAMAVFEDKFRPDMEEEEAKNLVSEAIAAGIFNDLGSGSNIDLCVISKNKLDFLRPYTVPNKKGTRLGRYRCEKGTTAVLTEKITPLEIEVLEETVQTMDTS
As to the kind of experiment: Inhibition of human 20S proteasome beta2 subunit using Ac-RLR-AMC as substrate preincubated for 2 hrs followed by substrate addition and measured after 1 hr by fluorescence intensity assay.

Data set [4] has as its target T4, Proteasome Macropain subunit MB1 (Homo sapiens, UniProt P28074).
T4 sequence (P28074 whole entry): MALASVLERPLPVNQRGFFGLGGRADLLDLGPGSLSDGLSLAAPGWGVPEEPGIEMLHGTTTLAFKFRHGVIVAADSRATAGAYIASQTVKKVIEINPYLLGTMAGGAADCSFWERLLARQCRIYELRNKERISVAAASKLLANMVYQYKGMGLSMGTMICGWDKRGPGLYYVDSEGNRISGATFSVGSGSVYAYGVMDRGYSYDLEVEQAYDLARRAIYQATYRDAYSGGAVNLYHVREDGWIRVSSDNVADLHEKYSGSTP
As to the kind of experiment: Inhibition of human 20S proteasome beta5 subunit using Suc-LLVY-AMC as substrate preincubated for 2 hrs followed by substrate addition and measured after 1 hr by fluorescence intensity assay.

The species named for data set [5] is Homo sapiens. As to the kind of experiment: Selectivity ratio of IC50 for inhibition of human 20S proteasome beta5 subunit to IC50 for inhibition of human 20S immunoproteasome beta-5i subunit.
For data set [6], the target named is T4, Proteasome Macropain subunit MB1. As to the kind of experiment: Inhibition of 20S proteasome beta5 subunit in human A549 cells using Suc-LLVY-luciferin substrate preincubated for 2 hrs followed by substrate addition and measured after 30 mins by luminometric analysis. In kind it is cell-based.
Data set [7] deals with T5, Proteasome subunit beta type-8 (Homo sapiens, UniProt P28062).
T5 sequence (P28062 whole entry): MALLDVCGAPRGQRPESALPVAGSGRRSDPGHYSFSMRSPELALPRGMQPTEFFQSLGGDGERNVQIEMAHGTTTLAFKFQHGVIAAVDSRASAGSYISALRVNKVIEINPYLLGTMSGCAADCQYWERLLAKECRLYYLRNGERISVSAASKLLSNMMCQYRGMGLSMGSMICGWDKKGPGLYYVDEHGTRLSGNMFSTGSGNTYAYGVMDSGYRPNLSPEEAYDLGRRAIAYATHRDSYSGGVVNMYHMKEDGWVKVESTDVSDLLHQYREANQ
As to the kind of experiment: Inhibition of 20S immunoproteasome beta-5i subunit in human PBMC using Ac-ANW-luciferin substrate preincubated for 2 hrs followed by substrate addition and measured after 30 mins by luminometric analysis. Type of data set: cell-based.

Data set [8] is filed under the species Homo sapiens. The experiment in a line: Selectivity ratio of IC50 for inhibition of 20S proteasome beta5 subunit in human A549 cells to IC50 for inhibition of 20S immunoproteasome beta-5i subunit in human PBMC. Type of data set: cell-based.
Data set [9] is described as follows: Lipophilicity, log P of the compound. The following applies: octanol/water. In kind it is physicochemical.
Data set [10] in a line: Distribution coefficient, log D of the compound. In kind it is physicochemical. The settings on record: octanol/water.
Data set [11] is described as follows: Kinetic solubility of the compound. In kind it is physicochemical. The following applies: read-out: Kinetic_solubility.
Data set [12] in a line: Intrinsic clearance in human liver microsomes measured per mg protein. Type of data set: ADME, Microsome. Background: Liver microsomes are vesicles of endoplasmic reticulum, rich in cytochrome P450 enzymes.
Data set [13] is described as follows: Half life in iv dosed mouse. In kind it is ADME, organism-based. The settings on record: in vivo.
Data set [14] in a line: Clearance in mouse hepatocytes measured per million of cells. Type of data set: ADME, cell-based, Hepatocyte. The following applies: read-out: CLH.
Data set [15] can be described thus: Clearance in human hepatocytes measured per million of cells. Type of data set: ADME, cell-based, Hepatocyte. The settings on record: read-out: CLH.
For data set [16], the target named is 5-hydroxytryptamine receptor 2A (Homo sapiens) (UniProt P28223). The experiment in a line: Displacement of [125I](+/-)DOI from human recombinant 5HT2A receptor at 10 uM incubated for 60 mins by radiometric scintillation counting analysis. In general terms: In a radioligand displacement assay an active substance lowers the binding of a labelled ligand.
Sequence of 5-hydroxytryptamine receptor 2A (Homo sapiens) (P28223 whole entry): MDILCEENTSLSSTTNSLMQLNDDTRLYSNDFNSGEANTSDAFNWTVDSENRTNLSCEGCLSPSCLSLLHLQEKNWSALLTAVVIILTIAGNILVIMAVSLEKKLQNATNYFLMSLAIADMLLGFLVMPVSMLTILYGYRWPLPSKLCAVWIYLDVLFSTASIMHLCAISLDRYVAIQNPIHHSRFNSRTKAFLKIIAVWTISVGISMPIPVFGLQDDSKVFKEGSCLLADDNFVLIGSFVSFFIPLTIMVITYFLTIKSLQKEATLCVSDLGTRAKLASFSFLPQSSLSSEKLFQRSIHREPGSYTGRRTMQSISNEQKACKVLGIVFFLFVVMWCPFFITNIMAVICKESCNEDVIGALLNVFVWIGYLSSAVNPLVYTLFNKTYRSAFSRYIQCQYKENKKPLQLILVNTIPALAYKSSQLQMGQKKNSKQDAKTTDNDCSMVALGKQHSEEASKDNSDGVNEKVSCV
Data set [17] in a line: Cytotoxicity against human HepG2 cells assessed as depletion of ATP content incubated for 48 to 72 hrs by CellTiter-Glo luminescent assay. In kind it is toxicity, cell-based. (In general: In ATP-based viability assays light output follows the ATP content of the culture.)
Data set [18] can be described thus: Cytotoxicity against human primary hepatocytes assessed as depletion of ATP content incubated for 48 to 72 hrs by CellTiter-Glo luminescent assay. Type of data set: toxicity, cell-based, Hepatocyte.
Data set [19] relates to 20S immunoproteasome beta-5i subunit. As to the kind of experiment: Selectivity ratio of IC50 for cytotoxicity against Wistar Han rat hepatocytes to IC50 for inhibition of 20S immunoproteasome beta-5i subunit in human PBMC. In kind it is toxicity. The following applies: read-out: Ratio IC50.
Data set [20] is described as follows: Toxicity in H2d Rag2 mouse xenografted with human U266B1 cells assessed as change in body weight at 0.3 to 1 mg/kg, po administered once daily and measured for 21 days. Type of data set: organism-based, U-266. The settings on record: in vivo, 504 h, dose 0.3-1 mg/kg, time 21 day.
Data set [21] relates to U-266. As to the kind of experiment: In vivo inhibition of LMP7 activity in tumor lysates of H2d Rag2 mouse xenografted with human U266B1 cells at 0.3 mg/kg, po administered once daily using (Ac-ANW)2R110 as substrate measured at 1 to 6 hrs post-last drug dosage by fluorescence intensity assay. In kind it is functional, organism-based. The following applies: Neoplasm, time 1-6 hrs.

Data set [22] deals with U-266. The experiment in a line: In vivo inhibition of LMP7 activity in tumor lysates of H2d Rag2 mouse xenografted with human U266B1 cells at 1 mg/kg, po administered as single dose using (Ac-ANW)2R110 as substrate measured up to 14 hrs by fluorescence intensity assay. The following applies: Neoplasm. In kind it is functional, organism-based.

Each structure is given as a SMILES string. pIC50: −log10 of the molar value. Calls of active or inactive are those of the source. The calls are words filed in the database; no cut-off is given here.

The pIC50 is −log10 of the IC50, conventionally taken in molar units. By logP is commonly meant the decadic logarithm of the partition coefficient of the neutral form, usually between octanol and water. Higher therefore signals higher lipophilicity. In general, logD refers to lipophilicity at a set pH, counting ionised and neutral species. A higher logD goes with a more lipophilic compound. One may read the half-life as how long it takes for the measured level to halve. Lower therefore signals fast loss. For the compound `O=C(N[C@@H](Cc1coc2ccccc12)B(O)O)[C@@H]1C[C@H]2CC[C@@H]1O2`, the pIC50 in data set [1] is < 4.52; in data set [2], < 4.52; in [3], < 4.52; in [4], 5.60; in [6] it was 5.99; in [7], 8.47. Also, the pIC50 is 4.32 in data set [17] and 4.04 in data set [18]. Further, the Ratio IC50 in the data set listed under Homo sapiens [5] amounted to 684; in the data set listed under Homo sapiens [8] it was 305. The same compound registered a logP in data set [9] of 2.34. In data set [10], this compound showed a logD of 1.1. Also, in [11], the solubility kinetic was > 200 µM. For the same compound, in data set [12], the CLH is < 10 µL/min/mg. This compound also gave a half-life in [13] of 1.71 h. Besides, the hepatocyte CLint in [14] worked out at 15 µL/min/1e6 cells; in data set [15] it was 6.2 µL/min/1e6 cells. The inhibition entry (in data set [16]; in the data set with U-266 [21]; in the data set with U-266 [22]) was “Active” each time. Further, the selectivity ratio in [19] is 10000. Besides, in data set [20], the Activity result is “Non-Toxic”.
